In paper PMC6192554, “In vitro toxicity and efficacy of verdinexor, an exportin 1 inhibitor, on opportunistic viruses affecting immunocompromised individuals” (PLoS ONE, 2018):

How the values were obtained:
[1] = system: Epstein-Barr virus (EBV) Akata strain; experiment: EBV primary assay, DNA hybridization in induced Akata cells; format: cell-based
Description: (§1) EBV Akata strain was assayed in Akata cells (John Sixbey, LSU) latently infected with EBV (and therefore oncogenic). Cells were maintained in RPMI 1640, (Mediatech) with 10% FBS (Hyclone), L-glutamine, penicillin and gentamicin.
For Primary assay, Akata cells latently infected with EBV were induced to undergo lytic infection by addition of 50μg/ml of a goat anti-human IgG [16] and a dose-range of verdinexor (0.032 to 100 μM) was added for 72hr. Denaturation buffer was added and an aliquot aspirated through an Immobilon nylon membrane (Millipore, Bedford, MA). Dried membranes were equilibrated in DIG Easy Hyb solution (Roche Diagnostics, Indianapolis, IN) at 56°C. Specific DIG-labeled probes for EBV (S1 Table). (Roche Diagnostics). Membranes with EBV DNA were hybridized overnight followed by washes in 0.2× SSC and 0.1× SSC both with 0.1% SDS. Detection of specifically bound DIG probe was performed with anti-DIG antibody (Roche Diagnostics). An image of the photographic film was captured and quantified with QuantityOne software (Bio-Rad), and the EC50 were interpolated.

[2] = system: Epstein-Barr virus (EBV) Akata strain; experiment: EBV secondary assay, qPCR of viral DNA in induced Akata cells; format: cell-based
Description: as §1
Secondary assay for EBV were performed in Akata cells that were induced to undergo a lytic infection with 50μg/ml of a goat anti-human IgG antibody by methods we reported previously. Experimental compounds were diluted in round bottom 96-well plates to yield concentrations ranging from 0.0032–100μM. Akata cells were added to the plates at a concentration of 4×10^4 cells per well and […]. Assay plates were incubated for seven days at 37°C. For all assays, the replication of the virus was assessed by the quantification of viral DNA. For primer sequences, please see S1 Table. EBV DNA was purified according to manufacturer’s instructions (Wizard SV 96 Genomic DNA Purification System). The purified DNA was then subjected to qPCR that amplified a fragment corresponding to nucleotides 96802–97234 in the EBV genome (AJ507799). Plasmid pMP218 containing a DNA sequences corresponding to nucleotides 14120–14182 (AF148805.2) was used to provide absolute quantification of viral DNA. Compound concentrations sufficient to reduce genome copy number by 50% were calculated from experimental data.

[3] = Cytotoxicity in HFF cells, concurrent with BKPyV assays; format: cell-based; details: human
Description: Cytotoxicity assays: Concurrent assessment of cytotoxicity was also performed for each study in the same cell line and with the same compound exposure. For KSHV, cell viability was assessed with the CellTiter-Glo Luminescent Cell Viability Assay (Promega) using manufacturer’s protocol. Luminescence was quantified on a luminometer. Standard methods were used to calculate the 50% cytotoxic level (CC50). Cytotoxicity assay was performed in a manner analogous to KSHV above.

[4] = Cytotoxicity in COS7 cells, concurrent with JCPyV assays; format: cell-based; details: African green monkey, COS-7 cells
Description: (§2) Cytotoxicity assays: Concurrent assessment of cytotoxicity was also performed for each study in the same cell line and with the same compound exposure.
For KSHV, cell viability was assessed with the CellTiter-Glo Luminescent Cell Viability Assay (Promega) using manufacturer’s protocol. Luminescence was quantified on a luminometer. Standard methods were used to calculate the 50% cytotoxic level (CC50).
Cytotoxicity assay was performed in a manner analogous to KSHV above. Evaluation of compounds against JCPyV virus was done in COS7 cells with the plasmid pMP508 to provide a standard curve for quantification.

HPV-18 = HPV-18 DNA amplification in organotypic raft culture of PHKs (qPCR); format: cell-based, human papillomavirus
Description: HPV-11 and -18 were tested in HEK293 cells and primary human keratinocytes (PHK), respectively. PHKs were isolated from neonatal foreskins following circumcision according to IRB-approved protocols at UAB. They were grown in keratinocyte serum-free medium (Life Technologies) with mitomycin C-treated J2 feeder cells (Swiss 3T3 J2 fibroblasts; Elaine Fuchs, Rockefeller University). HEK 293 cells were maintained under standard conditions.
(§3) For secondary assays, the amplification of HPV-18 DNA was determined in an organotypic squamous epithelial raft culture of PHKs. Whole genomic HPV-18 plasmids were generated in plasmid-transfected PHKs and developed into organotypic cultures as described. Based on the results of a 3-day toxicity assay, concentrations of test compound were added to a subset of raft cultures from day 6 through day 13 when the cultures were harvested. Similarly treated normal PHK raft cultures were also prepared to assess toxicity of uninfected tissue. One set of cultures were fixed in 10% buffered formalin, paraffin embedded and sectioned for in situ assay. Sections were stained with hematoxylin and eosin. Total DNA harvest from unfixed raft cultures was used to determine the HPV-18 copy number/per cell by qPCR. Inhibition was expressed as % of viral DNA copies relative to the untreated cultures.

[5] = Cytotoxicity in primary human keratinocytes (PHK); format: cell-based; details: HPV-18 secondary screen, PHKs
Description: as §2
HPV cytotoxicity assay was performed at the time of viral harvest by scoring cells in a BioRad Automatic Cell Counter for cell viability.
as §3

Murine CMV strain Smith = experiment: MCMV plaque reduction assay in MEF cells; format: cell-based, murine cytomegalovirus; details: primary screen
Description: Murine CMV strain Smith was obtained from Earl Kern and assayed in mouse embryonic fibroblast cells (MEF) immortalized by telomerization. Guinea pig CMV strain 22122 was obtained from the ATCC and assayed in primary guinea pig lung cells (GPL). Both MEF and GPL cells were prepared at the UAB tissue procurement facility with IRB approval as previously described.
Plaque reduction assays for MCMV, GPCMV were performed on monolayers of GPL (GPCMV) or MEF (MCMV) cells prepared in six-well plates and incubated at 37°C for 2d to allow the cells to reach confluency. Media was then aspirated from the wells and 0.2ml of virus was added to each of three wells to yield 20–30 plaques in each well. The virus was allowed to adsorb to the cells for 1h and the plates were agitated every 15min. Compounds were diluted in assay media consisting of MEM with Earl’s salts supplemented with 2% FBS, L-glutamine, penicillin, and gentamycin. Solutions ranging from 0.0032–10μM (primary) or 0.032–100μM (secondary) were added to triplicate wells and the plates were incubated for various times, depending on the virus used. For MCMV and GPCMV, the cell monolayer was stained with 1% neutral red solution for 4h at which time the stain was aspirated and cells were washed with PBS. […]

[6] = ferrets receiving 5mg/kg; cited from earlier work
[7] = human gammaherpesvirus 4, Akata

O=C(C=Cn1cnc(-c2cc(C(F)(F)F)cc(C(F)(F)F)c2)n1)NNc1ccccn1 (stereo in doubt) [verdinexor, (E)-3-[3-[3,5-bis(trifluoromethyl)phenyl]-1,2,4-triazol-1-yl]-N'-pyridin-2-ylprop-2-enehydrazide]
SI (Selectivity Index, CC50/EC50) ([1]; EBV, primary screen, DNA hybridization): < 1
EC50 [1, 7]: > 480 nM
SI (Selectivity Index, CC50/EC50) ([2]; EBV, secondary screen, qPCR): 7
EC50 [2, 7]: 50 nM
CC50 ([3]; BKPyV primary screen): 10 µM
CC50 ([3]; BKPyV secondary screen): 9.38 µM
CC50 ([4]; JCPyV primary screen): 10 µM
CC50 ([4]; JCPyV secondary screen): 73.3 µM
EC50 (HPV-18; Human papillomavirus): 8.3 µM
efficacy against HPV-18 (HPV-18; secondary screen, PHKs): did not show efficacy
CC50 [5]: 8.3 µM
EC50 (Murine CMV strain Smith): 190 nM
half life [6]: 2 h
